This assay addresses T1, recombinant human SYK360-635 (Homo sapiens, UniProt P43405).
T1 construct: made in house
As to the kind of experiment: Determination of IC50 of Spleen Tyrosine Kinase (SYK) inhibition, 33P ATP filtration assay. The format is biochemical. Particulars: SYK aa 360-635 0.5 nM; ATP 20 μM, peptide 5 μM, 0.1% BSA; read-out: SYK_ENZYME_FILTRATION/v1, BSA.
`COc1ccc2c(c1)c(-c1cnc3[nH]cc(C(=O)N[C@@H]4CCOC[C@@H]4N)c3n1)nn2C` [Example I-290, 2-(5-Methoxy-1-methyl-1H-indazol-3-yl)-5H-pyrrolo[2,3-b]pyrazine-7-carboxylic acid ((3R,4R)-3-amino-tetrahydro-pyran-4-yl)-amide]: the IC50 came to 2130 nM.
Consider `COc1ccc2c(c1)c(-c1cnc3[nH]cc(C(=O)N[C@@H]4CCCC[C@@H]4N)c3n1)nn2C` [Example I-291, 2-(5-Methoxy-1-methyl-1H-indazol-3-yl)-5H-pyrrolo[2,3-b]pyrazine-7-carboxylic acid ((1R,2S)-2-amino-cyclohexyl)-amide], for which the IC50 amounted to 1000 nM.
The figure for `CC(C)NC(=O)c1c[nH]c2ncc(-c3c4c(n(C)[n+]3[O-])CCCC4)nc12` [Example I-293, 2-(1-Methyl-2-oxy-4,5,6,7-tetrahydro-1H-indazol-3-yl)-5H-pyrrolo[2,3-b]pyrazine-7-carboxylic acid isopropylamide] is 2710 nM.
In the case of `Cn1c2c(c(-c3cnc4[nH]cc(C(=O)NC(C)(C)C)c4n3)[n+]1[O-])CCCC2` [Example I-294, 2-(1-Methyl-2-oxy-4,5,6,7-tetrahydro-1H-indazol-3-yl)-5H-pyrrolo[2,3-b]pyrazine-7-carboxylic acid tert-butylamide] it was 4190 nM.
In the case of `Cn1nc(-c2cnc3[nH]cc(C(=O)NC(C)(C)C)c3n2)c2c1CCCC2` [Example I-295, 2-(1-Methyl-4,5,6,7-tetrahydro-1H-indazol-3-yl)-5H-pyrrolo[2,3-b]pyrazine-7-carboxylic acid tert-butylamide] it was 12.6 nM.
Take `CC(C)(C)NC(=O)c1c[nH]c2ncc(-c3nn(CCC4OCCCO4)c4ccc(OC(F)F)cc34)nc12` [Example I-297, 2-[5-Difluoromethoxy-1-(2-[1,3]dioxan-2-yl-ethyl)-1H-indazol-3-yl]-5H-pyrrolo[2,3-b]pyrazine-7-carboxylic acid tert-butylamide]: the IC50 is 28.1 nM.
In the case of `CC(C)(C)NC(=O)c1c[nH]c2ncc(-c3nn(CCCO)c4ccc(OC(F)F)cc34)nc12` [Example I-298, 2-[5-Difluoromethoxy-1-(3-hydroxy-propyl)-1H-indazol-3-yl]-5H-pyrrolo[2,3-b]pyrazine-7-carboxylic acid tert-butylamide] it was 3.78 nM; in that of `CC(C)(C)NC(=O)c1c[nH]c2ncc(-c3nn(CCCN4CC(O)C4)c4ccc(OC(F)F)cc34)nc12` [Example I-300, 2-{5-Difluoromethoxy-1-[3-(3-hydroxy-azetidin-1-yl)-propyl]-1H-indazol-3-yl}-5H-pyrrolo[2,3-b]pyrazine-7-carboxylic acid tert-butylamide], 3.1 nM; in that of `CC(C)(C)NC(=O)c1c[nH]c2ncc(-c3nn(CCC4CNC4)c4cc(F)ccc34)nc12` [Example I-302, 2-[1-(2-Azetidin-3-yl-ethyl)-6-fluoro-1H-indazol-3-yl]-5H-pyrrolo[2,3-b]pyrazine-7-carboxylic acid tert-butylamide], 8.5 nM.
In the case of `Cc1cc2cccc(-c3cnc4[nH]cc(C(=O)NC(C)(C)C)c4n3)c2[nH]1` [Example I-303, 2-(2-Methyl-1H-indol-7-yl)-5H-pyrrolo[2,3-b]pyrazine-7-carboxylic acid tert-butylamide] it was 64.1 nM; in that of `CC(C)(C)NC(=O)c1c[nH]c2ncc(-c3cccc4cc[nH]c34)nc12` [Example I-304, 2-(1H-Indol-7-yl)-5H-pyrrolo[2,3-b]pyrazine-7-carboxylic acid tert-butylamide], 7.35 nM; in that of `CC(C)NC(=O)c1c[nH]c2ncc(-c3n[nH]c4cc(Cl)ccc34)nc12` [Example I-306, 2-(6-Chloro-1H-indazol-3-yl)-5H-pyrrolo[2,3-b]pyrazine-7-carboxylic acid isopropylamide], 7.25 nM.
In the case of `CCn1nc(-c2cnc3[nH]cc(C(=O)NC(C)C)c3n2)c2ccc(Cl)cc21` [Example I-307, 2-(6-Chloro-1-ethyl-1H-indazol-3-yl)-5H-pyrrolo[2,3-b]pyrazine-7-carboxylic acid isopropylamide] it was 32.6 nM.

The values are drawn from patent US8658646B2, “Pyrrolopyrazine kinase inhibitors” (Hoffmann-LaRoche Inc., priority 2011, dated 2014).
